Assay results as given in paper PMC2765192 (Journal of medicinal chemistry, 2009).

Key:
human mGluR4 [1] = molecular target: T1, human mGluR4 (Homo sapiens, UniProt Q14833); experiment: Fold shift of glutamate concentration-response curve, human mGluR4/Gqi5 cells; conditions: fold shift of glutamate response curve to the left
human mGluR4 [2] = molecular target: T1, human mGluR4; assay type: cell-based; conditions: for mGluR4 PAM activity (in words): human mGluR4
mGluR5 = mGluR5 (Homo sapiens, UniProt P41594); experiment: mGluR subtype selectivity: mGluR5; conditions: for separation in potencies compared to mGluR4: mGluR5 vs mGluR4; for PAM activity at mGluR5 (in words): selectivity
mGluR5, sequence (P41594 21-1212): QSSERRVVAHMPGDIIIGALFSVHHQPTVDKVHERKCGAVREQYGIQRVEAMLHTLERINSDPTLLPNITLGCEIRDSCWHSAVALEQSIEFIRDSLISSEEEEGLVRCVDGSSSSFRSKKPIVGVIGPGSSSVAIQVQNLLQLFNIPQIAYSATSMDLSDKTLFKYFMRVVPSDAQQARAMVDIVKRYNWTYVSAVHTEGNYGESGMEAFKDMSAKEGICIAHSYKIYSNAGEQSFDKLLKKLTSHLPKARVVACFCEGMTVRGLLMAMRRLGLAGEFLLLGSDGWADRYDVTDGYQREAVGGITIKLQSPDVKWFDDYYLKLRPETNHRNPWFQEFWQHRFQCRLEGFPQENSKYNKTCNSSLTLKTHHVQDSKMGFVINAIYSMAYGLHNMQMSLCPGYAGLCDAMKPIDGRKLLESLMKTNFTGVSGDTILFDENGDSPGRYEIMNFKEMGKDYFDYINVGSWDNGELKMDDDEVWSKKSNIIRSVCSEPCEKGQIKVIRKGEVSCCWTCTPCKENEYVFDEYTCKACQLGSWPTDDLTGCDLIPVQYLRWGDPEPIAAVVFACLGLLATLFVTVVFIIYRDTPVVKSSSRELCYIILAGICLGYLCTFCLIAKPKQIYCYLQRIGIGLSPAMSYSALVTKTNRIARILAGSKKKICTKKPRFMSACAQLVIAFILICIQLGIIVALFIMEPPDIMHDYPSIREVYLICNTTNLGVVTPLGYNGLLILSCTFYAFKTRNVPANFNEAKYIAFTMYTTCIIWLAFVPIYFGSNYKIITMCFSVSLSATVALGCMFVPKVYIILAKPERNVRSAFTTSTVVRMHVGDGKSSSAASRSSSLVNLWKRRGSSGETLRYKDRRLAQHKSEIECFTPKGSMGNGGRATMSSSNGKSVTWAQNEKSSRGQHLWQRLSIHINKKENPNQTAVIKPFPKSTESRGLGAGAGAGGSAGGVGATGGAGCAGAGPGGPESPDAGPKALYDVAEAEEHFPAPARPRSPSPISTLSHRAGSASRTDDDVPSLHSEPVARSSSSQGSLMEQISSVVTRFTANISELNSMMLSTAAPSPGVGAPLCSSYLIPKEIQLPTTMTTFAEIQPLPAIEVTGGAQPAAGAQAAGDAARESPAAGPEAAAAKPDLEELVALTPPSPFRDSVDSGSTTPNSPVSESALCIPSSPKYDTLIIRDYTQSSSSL

[3] = Metabolic stability in rat liver microsomes; conditions: parent remaining after the incubation period
rat mGluR4 = rat mGluR4 (Rattus norvegicus, UniProt P31423)
rat mGluR4, sequence (P31423 33-912): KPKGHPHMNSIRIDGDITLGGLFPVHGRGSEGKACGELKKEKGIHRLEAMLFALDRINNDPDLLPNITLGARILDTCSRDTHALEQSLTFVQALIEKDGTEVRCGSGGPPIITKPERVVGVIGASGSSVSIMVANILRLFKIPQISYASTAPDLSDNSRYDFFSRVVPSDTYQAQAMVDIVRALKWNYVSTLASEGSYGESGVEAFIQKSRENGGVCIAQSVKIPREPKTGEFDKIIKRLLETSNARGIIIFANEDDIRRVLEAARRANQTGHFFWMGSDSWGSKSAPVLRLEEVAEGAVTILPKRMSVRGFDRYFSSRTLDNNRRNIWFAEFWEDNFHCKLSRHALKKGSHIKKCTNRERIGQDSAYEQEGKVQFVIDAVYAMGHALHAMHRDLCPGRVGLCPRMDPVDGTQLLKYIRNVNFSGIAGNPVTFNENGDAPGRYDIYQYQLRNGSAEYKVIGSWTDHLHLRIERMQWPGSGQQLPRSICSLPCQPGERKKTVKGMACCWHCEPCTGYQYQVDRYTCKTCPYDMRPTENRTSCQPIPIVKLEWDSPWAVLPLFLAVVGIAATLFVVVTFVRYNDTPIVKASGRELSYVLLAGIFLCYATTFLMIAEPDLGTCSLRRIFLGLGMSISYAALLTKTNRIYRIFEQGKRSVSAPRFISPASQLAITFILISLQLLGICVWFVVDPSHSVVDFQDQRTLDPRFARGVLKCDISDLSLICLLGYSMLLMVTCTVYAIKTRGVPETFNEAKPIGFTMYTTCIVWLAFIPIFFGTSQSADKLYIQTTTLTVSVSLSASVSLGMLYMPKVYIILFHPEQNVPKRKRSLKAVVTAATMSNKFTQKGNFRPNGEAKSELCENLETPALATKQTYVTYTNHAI

mGluR8 = mGluR8 (Homo sapiens, UniProt O00222); experiment: mGluR subtype selectivity: mGluR8; conditions: for separation in potencies compared to mGluR4: mGluR8 vs mGluR4; for PAM activity at mGluR8 (in words): selectivity
mGluR8, sequence (O00222 34-908, species assumed): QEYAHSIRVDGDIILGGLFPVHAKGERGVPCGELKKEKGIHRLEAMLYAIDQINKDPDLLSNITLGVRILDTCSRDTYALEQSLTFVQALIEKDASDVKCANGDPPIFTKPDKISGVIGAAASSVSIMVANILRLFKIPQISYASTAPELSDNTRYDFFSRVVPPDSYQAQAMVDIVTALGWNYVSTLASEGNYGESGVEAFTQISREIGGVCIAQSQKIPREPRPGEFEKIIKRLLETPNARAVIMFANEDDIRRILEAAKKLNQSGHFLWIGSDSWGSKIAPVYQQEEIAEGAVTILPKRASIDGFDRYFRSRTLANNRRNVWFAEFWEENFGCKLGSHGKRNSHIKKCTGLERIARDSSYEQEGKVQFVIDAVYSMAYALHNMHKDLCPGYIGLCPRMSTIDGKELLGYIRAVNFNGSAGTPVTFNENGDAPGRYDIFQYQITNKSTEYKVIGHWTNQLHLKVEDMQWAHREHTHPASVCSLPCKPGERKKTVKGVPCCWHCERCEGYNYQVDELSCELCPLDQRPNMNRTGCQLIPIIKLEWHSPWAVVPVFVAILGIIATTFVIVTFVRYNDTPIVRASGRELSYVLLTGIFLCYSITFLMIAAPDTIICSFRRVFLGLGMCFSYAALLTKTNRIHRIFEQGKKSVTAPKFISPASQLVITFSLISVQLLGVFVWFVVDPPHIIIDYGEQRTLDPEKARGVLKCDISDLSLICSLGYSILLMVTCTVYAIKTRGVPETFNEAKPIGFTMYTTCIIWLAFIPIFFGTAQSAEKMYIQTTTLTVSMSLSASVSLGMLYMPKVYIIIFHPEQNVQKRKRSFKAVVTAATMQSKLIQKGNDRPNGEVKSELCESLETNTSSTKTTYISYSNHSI

[4] = Metabolic stability in human liver microsomes; conditions: parent remaining after the incubation period
[5] = Rat pharmacokinetics, brain and plasma levels after intraperitoneal dosing; conditions: rats, nontoxic vehicles

T1 sequence (Q14833 33-912): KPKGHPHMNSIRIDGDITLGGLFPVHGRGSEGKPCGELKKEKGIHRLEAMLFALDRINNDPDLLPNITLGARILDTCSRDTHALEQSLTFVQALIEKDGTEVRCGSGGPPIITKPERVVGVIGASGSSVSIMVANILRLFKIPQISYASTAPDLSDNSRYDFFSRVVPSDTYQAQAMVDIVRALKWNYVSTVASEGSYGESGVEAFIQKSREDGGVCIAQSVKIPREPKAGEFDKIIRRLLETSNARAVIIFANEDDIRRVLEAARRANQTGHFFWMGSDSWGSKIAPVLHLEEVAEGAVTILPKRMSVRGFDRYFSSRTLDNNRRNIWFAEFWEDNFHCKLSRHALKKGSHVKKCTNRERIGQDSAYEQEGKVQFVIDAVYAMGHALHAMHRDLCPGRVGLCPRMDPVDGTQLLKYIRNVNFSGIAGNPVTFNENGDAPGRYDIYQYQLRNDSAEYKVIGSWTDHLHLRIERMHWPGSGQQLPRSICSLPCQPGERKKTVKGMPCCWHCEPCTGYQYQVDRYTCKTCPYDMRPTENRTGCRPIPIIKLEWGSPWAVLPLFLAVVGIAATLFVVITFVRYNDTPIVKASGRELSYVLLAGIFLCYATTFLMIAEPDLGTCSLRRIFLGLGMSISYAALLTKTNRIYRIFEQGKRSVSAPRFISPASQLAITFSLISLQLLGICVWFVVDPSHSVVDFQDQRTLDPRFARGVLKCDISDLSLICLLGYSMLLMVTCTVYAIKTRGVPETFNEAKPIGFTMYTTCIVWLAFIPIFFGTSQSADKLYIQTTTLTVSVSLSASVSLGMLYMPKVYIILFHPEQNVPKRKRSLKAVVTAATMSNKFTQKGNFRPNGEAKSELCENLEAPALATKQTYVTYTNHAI

SMILES	mGluR4 PAM activity (in words) (human mGluR4 [2])	RLM (% remaining) [3]	HLM (% remaining) [4]	other results
O=C(Nc1ccccc1)[C@]12C[C@H]1/C(=N\O)c1ccccc1O2 [Compound 1, (-)-PHCCC]				FS (h) (human mGluR4 [1]): 7.0±0.2
O=C(Nc1ccc(Cl)c(Cl)c1)c1ccccc1 [Compound 8i]	inactive			
COc1cc(NC(=O)c2ccccn2)ccc1Cl [Compound 9b]	submicromolar potency	1.8 % remaining	5.3 % remaining	separation in potencies compared to mGluR4 (mGluR5): > 20 fold; PAM activity at mGluR5 (in words) (mGluR5): weak PAM activity; potency at rat mGluR4 (in words) (rat mGluR4): submicromolar potency; separation in potencies compared to mGluR4 (mGluR8): > 20 fold; PAM activity at mGluR8 (in words) (mGluR8): weak PAM activity; central penetration (in words) [5]: centrally penetrant
O=C(Nc1cccc(C(F)(F)F)n1)c1ccccn1 [Compound 9o]	inactive			
O=C(Nc1cccc(OC(F)F)c1)c1ccccn1 [Compound 9c]	submicromolar potency	1.4 % remaining	2.4 % remaining	separation in potencies compared to mGluR4 (mGluR5): > 20 fold; PAM activity at mGluR5 (in words) (mGluR5): weak PAM activity; potency at rat mGluR4 (in words) (rat mGluR4): submicromolar potency; separation in potencies compared to mGluR4 (mGluR8): > 20 fold; PAM activity at mGluR8 (in words) (mGluR8): weak PAM activity; central penetration (in words) [5]: centrally penetrant
O=C(Nc1ccc(Cl)c(Cl)c1)c1ccncn1 [Compound 8l]	retained potency			
COc1cc(NC(=O)c2ccccn2)ccc1F [Compound 9a]		6.3 % remaining	3.0 % remaining	
COc1cc(NC(=O)c2ccccn2)ncn1 [Compound 9p]	inactive			
O=C(Nc1cccc(OC(F)(F)F)c1)c1ccccn1 [Compound 9d]		20 % remaining	22 % remaining	loss of activity (human mGluR4 [2]; 9d (trifluoromethoxy) vs. 9c (difluoromethoxy)): > 10 fold
O=C(Nc1ccc(Cl)c(Cl)c1)c1cnccn1 [Compound 8k]	lost activity			
O=C(Nc1ccc(Cl)c(Cl)c1)C1CCCCC1 [Compound 8h]	inactive			
O=C(Nc1cccc(C(F)(F)F)c1)c1ccccn1 [Compound 9e]		19 % remaining		
